We go through 5 compounds from patent publication US20070060586A1, “Nitrooxyderivatives of antihypertensive drugs” (priority 2003, published 2007).

The assay relates to PC12 cells. The assay is described as follows: Measurements of cGMP in rat PC12 cell line (intracellular cGMP formation, enzyme immunoassay). The assay is classed as cell-based. Conditions: for EC50: PC-12, 0.75 h. How it is done:
Measurements of CGMP in Rat PC12 Cell Line.
cGMP contributes to the function and interaction of several vascular cell types and its dysfunction is involved in major cardiovascular diseases such as hypertension, diabetic complications, atherosclerosis, and tissue infarction. Therefore the extent of cGMP formation elicited by the compounds of the inventions was evaluated in the rat pheochromocytoma (PC12) cell line.
Cells were maintained at 37° C. in DMEM medium enriched with 10% horse serum and 5% foetal bovine serum under 5% CO2 atmosphere. At the time of experiments the cells were washed once with Hank's Balanced Salt Solution (HBSS) supplemented with 0.05% ascorbic acid and preincubated in the same buffer for 10 min in a floating water bath. After the preincubation step, cells were exposed for additional 45 min to either control conditions or increasing concentrations of test compounds ranging from 0.1 to 25 μM, in the presence of the phosphodiesterase inhibitor, IBMX (100 μM) and the NO-independent activator of soluble guanylyl cyclase, YC-1 (20 μM). The reaction was terminated by the removal of the incubating buffer and consecutive addition of 100 μl of absolute ethanol. The organic extracts were then evaporated to dryness and the residues dissolved in aqueous buffer for quantitative determination of intracellular cGMP levels using the cGMP enzyme immunoassay kit.
The obtained results reported in Table 1 are expressed as EC50 (μM) and efficacy Emax (% of vehicle). As shown in the table the nitroderivatives of timolol elicited consistent increase of intracellular cGMP formation in PC12 cell line.

[1] abbreviates: 45 min exposure, 0.1 to 25 μM, in the presence of IBMX (100 μM) and YC-1 (20 μM).

Molecules are shown by their SMILES. Counter-ions that a name gives are not always drawn.

As to `CC(C)(C)NCC(COc1nsnc1N1CCOCC1)OC(=O)c1ccc(CO[N+](=O)[O-])cc1.O=C(O)/C=C\C(=O)O` [Compound of example 1, 4-(Nitrooxymethyl)benzoic acid (S)-1-[(1,1-dimethylethyl)amino]-3-[[4-(4-morpholinyl)-1,2,5thiadiazol-3-yl]oxy]-2-propanoate maleate salt], the “Emax (% of vehicle), cGMP formation in PC12 cells” value (“Emax (% of vehicle)” below) under setting [1] is listed as 796 % of vehicle. With `CC(C)(C)N(C[C@H](O)COc1nsnc1N1CCOCC1)C(=O)c1ccc(CO[N+](=O)[O-])cc1` [Compound of example 3, (S)-1-[(1,1-dimethylethyl)[(4-nitrooxymethyl)benzoyl]amino]-3-[[4-(4-morpholinyl)-1,2,5-thiadiazol-3-yl]oxy]-2-propanol], under setting [1], the “Emax (% of vehicle)” value was 866 % of vehicle and the concentration giving a half-maximal response (EC50) (as a rule, the concentration at which the effect is half-maximal) worked out at 18.5 µM.

With `CC(C)(C)NC[C@@H](COc1nsnc1N1CCOCC1)OC(=O)c1ccc(CO[N+](=O)[O-])cc1` [Compound of example 1, 4-(Nitrooxymethyl)benzoic acid (S)-1-[(1,1-dimethylethyl)amino]-3-[[4-(4-morpholinyl)-1,2,5thiadiazol-3-yl]oxy]-2-propanoate maleate salt], the EC50 under setting [1] is 12.6 µM. As for `CC(C)(C)NC[C@H](O)COc1nsnc1N1CCOCC1` [Timolol, reference compound], under setting [1], the “EC50, cGMP formation in PC12 cells” value is reported as “Not effective” and the “Emax (% of vehicle)” value is given as “Not effective”. Also, under “summary statement to Table 1”, the “increase of intracellular cGMP formation in PC12 cell line (in words)” value was “this effect was not shared”. For `CC(C)(C)N(CC(COc1nsnc1N1CCOCC1)OC(=O)c1ccc(CO[N+](=O)[O-])cc1)C(=O)c1ccc(CO[N+](=O)[O-])cc1` [Compound of example 2, 4-(Nitrooxymethyl)benzoic acid (S)-1-[(1,1-dimethylethyl)[(4-nitrooxymethyl)benzoyl]amino]-3-[[4-(4-morpholinyl)-1,2,5-thiadiazol-3-yl]oxy]-2-propanoate], under setting [1], the “Emax (% of vehicle)” value is reported as 480 % of vehicle and the EC50 is 1.3 µM.
